Patent US20140057979A1, “Expression Modulator For Clock Gene” (Shiseido Company, Ltd., priority 2012, published 2014)

Tests used:
Type in all cases: cell-based
hBmal1 gene [1] = experiment: Clock gene expression regulation, hBmal1 expressed amount by RT-PCR in cultured human skin fibroblast cells; conditions: for Relative expressed amount of hBmal1 (16 hours): 50 ppm test substance, 16 hours after addition, relative to RPLP0, control 0.48, *p < 0.05; for expressed amount of hBmal1 gene in comparison with the control: 50 ppm, 16 hours, Dunnett's test one-sided 5%
Procedure: (§1) The results above confirm that in an evaluation system using cultured human skin fibroblast cells, clock genes acquire a circadian rhythm when stimulated with cortisol. Because it is desirable to evaluate during a time period when the expressed amount is high, the clock gene expression regulation effects of the test substances were evaluated based on the expressed amount of the clock gene 16 hours after stimulation in the case of hBmal1 and 2 hours after stimulation in the case of hPer1.
(§2) Fibroblasts cells from normal human skin (Cell Application, Inc.) were seeded by methods similar to those used above, each chemical was added on the 6th day of culture to a concentration of 50 ppm, and the cells were sampled after 2 hours and after 16 hours. The same amount of ethanol was added instead of the test substance as a control. RNA was extracted from the cells with a commercial RNA extraction kit, and the expressed amounts of the hBmal1 and hPer1 genes were measured by RT-PCR using a commercial PCR primer (Perfect Real Time Primer, Takara Bio). Similarly, the expressed amount of the housekeeping gene RPLP0 was assayed and used as an internal standard to calculate the expressed amounts of the target genes relative to the expressed amount of RPLP0. Dunnett's multiple comparison test was performed on the obtained values, and an effect was recognized if there was a significant difference with a one-sided 5% risk factor in comparison with the control.

hPer1 gene [2] = experiment: Clock gene expression regulation, hPer1 expressed amount by RT-PCR in cultured human skin fibroblast cells; conditions: for Relative expressed amount of hPer1 (2 hours): 50 ppm test substance, 2 hours after addition, relative to RPLP0, control 0.24, *p < 0.05; for expressed amount of hPer1 gene in comparison with the control: 50 ppm, 2 hours, Dunnett's test one-sided 5%
Procedure: as §1, §2

hBmal1 gene [3] = experiment: Induction of circadian rhythm of hBmal1 expression with cortisol in cultured human skin fibroblast cells; conditions: 50 ng/ml cortisol, 2 hours of treatment, cells sampled over time (FIG. 2)
Procedure: (§3) It was confirmed that a circadian rhythm of clock gene expression can be induced in a system using cultured human skin fibroblast cells.
(§4) As the cultured human fibroblast cells, fibroblast cells from normal human skin were purchased (Cell Application, Inc.) and used in the experiments. They were seeded on DMEM medium with 10% FBS, 20 mM HEPES, Glutamax and an antibacterial agent added thereto, and cultured at 37° C. in 5% CO2. On the 6th day of culture, 50 ng/ml of cortisol was added, and after 2 hours of treatment the cells were sampled over time. RNA was extracted from the cells with a commercial RNA extraction kit, and the expressed amounts of the hBmal1 and hPer1 genes were measured by RT-PCR using a commercial PCR primer (Perfect Real Time Primer, Takara Bio). Similarly, the expressed amount of the housekeeping gene RPLP0 was assayed and used as an internal standard to calculate the expressed amounts of the target genes relative to the expressed amount of RPLP0.
(§5) In the body, cortisol and other glucocorticoids are involved in regulating the biological clock in peripheral tissue and the like, and it is thought that blood concentrations of cortisol rise at the time of awakening in the morning, resetting the biological clock. […]

hPer1 gene [4] = experiment: Induction of circadian rhythm of hPer1 expression with cortisol in cultured human skin fibroblast cells; conditions: 50 ng/ml cortisol, 2 hours of treatment, cells sampled over time (FIG. 2)
Procedure: as §3, §4, §5

SMILES: C=C1CC[C@H]2O[C@]2(C)CC[C@@H]2[C@@H]1CC2(C)C [Caryophyllene oxide, (1R,4R,6R,10S)-4,12,12-trimethyl-9-methylene-5-oxatricyclo[8.2.0.04.6]dodecane]
- Relative expressed amount of hBmal1 (16 hours) (hBmal1 gene [1]): 3.50*
- expressed amount of hBmal1 gene in comparison with the control (hBmal1 gene [1]): significantly increased
- Relative expressed amount of hPer1 (2 hours) (hPer1 gene [2]): 2.29*
- expressed amount of hPer1 gene in comparison with the control (hPer1 gene [2]): significantly increased

SMILES: COC(=O)c1ccccc1N [Methyl 2-aminobenzoate]
- Relative expressed amount of hBmal1 (16 hours) (hBmal1 gene [1]): 1.19*
- expressed amount of hBmal1 gene in comparison with the control (hBmal1 gene [1]): significantly increased
- Relative expressed amount of hPer1 (2 hours) (hPer1 gene [2]): 0.64*
- expressed amount of hPer1 gene in comparison with the control (hPer1 gene [2]): significantly increased

SMILES: CNc1ccccc1C(=O)OC [Methyl 2-methylaminobenzoate]
- Relative expressed amount of hBmal1 (16 hours) (hBmal1 gene [1]): 2.52*
- expressed amount of hBmal1 gene in comparison with the control (hBmal1 gene [1]): significantly increased
- Relative expressed amount of hPer1 (2 hours) (hPer1 gene [2]): 0.64*
- expressed amount of hPer1 gene in comparison with the control (hPer1 gene [2]): significantly increased

SMILES: COC(=O)c1ccccc1C [Methyl 2-methylbenzoate, methyl 2-methylbenzoate]
- Relative expressed amount of hBmal1 (16 hours) (hBmal1 gene [1]): 1.01*
- expressed amount of hBmal1 gene in comparison with the control (hBmal1 gene [1]): significantly increased
- Relative expressed amount of hPer1 (2 hours) (hPer1 gene [2]): 0.44*
- expressed amount of hPer1 gene in comparison with the control (hPer1 gene [2]): significantly increased

SMILES: C[C@]12CCC(=O)C=C1CC[C@@H]1[C@@H]2[C@@H](O)C[C@@]2(C)[C@H]1CC[C@]2(O)C(=O)CO [cortisol]
- cycle of circadian rhythm of hBmal1 expression as a result of cortisol stimulation (hBmal1 gene [3]): roughly 24 hour
- cycle of circadian rhythm of hPer1 expression as a result of cortisol stimulation (hPer1 gene [4]): roughly 24 hour
